Consider 14 compounds from US20230192617A1, “AZABICYCLIC(THIO)AMIDES AS FUNGICIDAL COMPOUNDS” (Bayer CropScience Aktiengesellschaft, priority 2020, published 2023).

One data set relates to Alternaria alternata. As to the kind of experiment: Alternaria alternata in vitro cell test. As to conditions: 120 h, 20 ppm of active ingredient, liquid culture, 5 days incubation, spectrometric measurement of mycelium growth, read-out: efficacy (inhibition of fungal growth). It is filed as cell-based. An outline of the steps: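 Liquid culture assay in which A. alternata spores in medium received DMSO-solubilized compound (final DMSO ≤1%). After 5 days, mycelium growth was measured spectrometrically. Inhibition was calculated against fungicide-free control wells.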

Data set [1] can be described thus: Measurement of Log P values by HPLC on reversed phase columns (EEC directive 79/831 Annex V.A8). The class given is physicochemical. As to conditions: reversed phase HPLC column, method [a]: LC-UV, acidic range, 0.1% formic acid in water and acetonitrile as eluent. An outline of the steps:
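Reversed-phase HPLC with UV detection per EEC 79/831 Annex V.A8, linear 10–95% acetonitrile gradient. Aqueous eluent: 0.1% formic acid (acidic), 0.001 M ammonium acetate (neutral), or 0.1% phosphoric acid (acidic); multiple values in one method joined by "+".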

The subject of another data set is Septoria tritici. As to the kind of experiment: B-9. Septoria tritici in vitro cell test. As to conditions: Zymoseptoria tritici, 168 h; 20 ppm of active ingredient; 7 days incubation; liquid culture, absorbance; read-out: efficacy (inhibition of fungal growth). The class given is cell-based. How it is done: B-9. Septoria tritici In Vitro Cell Test [table] Fungicides were solubilized in DMSO and the solution used to prepare the required range of concentrations. The final concentration of DMSO used in the assay was ≤1%. A spore suspension of S. tritici was prepared and diluted to the desired spore density. Fungicides were evaluated for their ability to inhibit spore germination and mycelium growth in liquid culture assay. The compounds were added in the desired concentration to the culture medium with spores. After 7 days incubation, fungi-toxicity of compounds was determined by spectrometric measurement of mycelium growth. Inhibition of fungal growth was determined by comparing the absorbance values in wells containing the fungicides with the absorbance in control wells without fungicides.

For data set [2], the system named is Botrytis cinerea. As to the kind of experiment: B-11. Botrytis cinerea in vitro cell test. The class given is cell-based. Conditions: 144 h, 20 ppm of active ingredient, 6 days incubation, liquid culture, absorbance, read-out: efficacy (inhibition of fungal growth). An outline of the steps: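 B. cinerea spores were grown in liquid culture with compound (DMSO ≤1% final). Mycelium growth was measured spectrometrically after 6 days, with inhibition taken as absorbance relative to untreated control wells.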

Data set [3] deals with Pyrenophora teres. The data set is described as follows: B-10. Pyrenophora teres in vitro cell test. It is filed as cell-based. Conditions: 144 h, 20 ppm of active ingredient, 6 days incubation, liquid culture, absorbance, read-out: efficacy (inhibition of fungal growth). An outline of the steps:
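Liquid-culture assay on a P. teres spore suspension with compounds added to the medium from DMSO solutions, final DMSO ≤1%. Mycelium growth read spectrometrically after 6 days. Inhibition calculated from absorbance against untreated control wells.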

For data set [4], the system named is Colletotrichum lindemuthianum. As to the kind of experiment: B-8. Colletotrichum lindemuthianum in vitro cell test. The class given is cell-based. As to conditions: 144 h, 20 ppm of active ingredient, 6 days incubation, liquid culture, absorbance, read-out: efficacy (inhibition of fungal growth). An outline of the steps:
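Spore suspension of C. lindemuthianum in liquid medium exposed to DMSO-solubilized compounds (final DMSO ≤1%) for 6 days. Mycelial growth read by absorbance, with inhibition calculated relative to compound-free control wells.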

Data set [5] relates to Pyrenophora teres. As to the kind of experiment: In vivo preventive test on Pyrenophora teres (net blotch on barley). Conditions: 240 h, 500 ppm of active ingredient, preventive spray on barley, evaluated 10 days after inoculation, read-out: efficacy. How it is done: B-3. In Vivo Preventive Test on Pyrenophora Teres (Net Blotch on Barley) [table] The active ingredients were made soluble and homogenized in a mixture of Dimethyl sulfoxide/Acetone/Tween® 80 and then diluted in water to the desired concentration. The young plants of barley were treated by spraying the active ingredient prepared as described above. Control plants were treated only with an aqueous solution of Acetone/Dimethyl sulfoxide/Tween® 80. After 24 hours, the plants were contaminated by spraying the leaves with an aqueous suspension of Pyrenophora teres spores. The contaminated barley plants were incubated for 48 hours at 20° C. and at 100% relative humidity and then for 8 days at 20° C. and at 70-80% relative humidity.

For data set [6], the system named is Botrytis cinerea. The data set is described as follows: In vivo preventive test on Botrytis cinerea (grey mould). Conditions: 500 ppm of active ingredient, preventive spray on gherkin or cabbage, evaluated 4 to 5 days after inoculation, read-out: efficacy. An outline of the steps:
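Young gherkin or cabbage plants were sprayed with compound in DMSO/acetone/Tween 80 diluted in water, then inoculated 24 hours later with a B. cinerea spore suspension. Incubation lasted 4 to 5 days: gherkin at 17° C., 90% relative humidity; cabbage at 20° C., 100% relative humidity.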

Another data set has as its system Sphaerotheca fuliginea. As to the kind of experiment: In vivo preventive test on Sphaerotheca fuliginea (powdery mildew on cucurbits). As to conditions: Podosphaera fuliginea, 192 h; 500 ppm of active ingredient; preventive spray on gherkin; evaluated 8 days after inoculation; read-out: efficacy. An outline of the steps:
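Young gherkin plants were sprayed with compound in DMSO/acetone/Tween 80 diluted in water. They were inoculated 24 h later with a spore suspension of Sphaerotheca fuliginea. Plants were then kept for 8 days at 20 °C and 70–80% relative humidity.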

The next data set relates to Alternaria brassicae. As to the kind of experiment: In vivo preventive test on Alternaria brassicae (leaf spot on radish or cabbage). Conditions: 500 ppm of active ingredient, preventive spray on radish or cabbage, evaluated 3 to 4 days after inoculation, read-out: efficacy. An outline of the steps:
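Young radish or cabbage plants were sprayed with compound dissolved in DMSO/acetone/Tween 80 and diluted in water; controls received solvent only. Inoculation by spraying A. brassicae spore suspension 24 h later, then 3–4 days at 20 °C and 100% relative humidity.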

Data set [7] relates to Colletotrichum lindemuthianum. As to the kind of experiment: In vivo preventive test on Colletotrichum lindemuthianum (leaf spot on bean). As to conditions: 168 h, 500 ppm of active ingredient, preventive spray on bean, evaluated 7 days after inoculation, read-out: efficacy. An outline of the steps:
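Young bean plants sprayed with compound in DMSO/acetone/Tween 80 diluted in water; solvent-only controls. Inoculated 24 h later with C. lindemuthianum spore suspension, then kept 24 h at 20 °C/100% RH and 6 days at 20 °C/90% RH.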

Structures are written as SMILES.

`Cc1ccc(C(F)CNC(=O)c2c(Oc3cccc(C(F)(F)F)c3)nnc3c2CCC3)c(C)c1` (centres unmarked) [I-138]: the inhibition at 20 ppm (in the data set on Alternaria alternata; in the data set on Septoria tritici; in the data set with Botrytis cinerea [2]; in the data set on Pyrenophora teres [3]; in data set [4]) was 90 to 100% each time. This compound yielded a chromatographic logP in data set [1] of 3.84.
On to `Cc1ccc(C(F)CNC(=O)c2c(Oc3cccc(Cl)c3F)nnc3c2CCC3)c(C)c1` (centres unmarked) [I-236], for which the pest or weed control at 500 ppm (with Pyrenophora teres [5]; with Botrytis cinerea [6]; in the data set on Sphaerotheca fuliginea; with Alternaria brassicae; in data set [7]) was 90 to 100% each time. The inhibition at 20 ppm in the data set with Alternaria alternata lay within 80 to 89%; with Botrytis cinerea [2] it was 90 to 100%; in the data set on Pyrenophora teres [3], 90 to 100%. Moreover, the chromatographic logP in data set [1] was 3.73.
As for `Cc1ccc(CCNC(=O)c2c(Oc3cccc(C(F)(F)F)c3)cnc3ccoc23)c(C)c1` [I-068], the pest or weed control at 500 ppm lay in the range of 80 to 89% in the data set with Pyrenophora teres [5]; 90 to 100% in the data set with Botrytis cinerea [6]; 90 to 100% in the data set on Sphaerotheca fuliginea; 90 to 100% with Alternaria brassicae; 90 to 100% in [7]. Besides, the inhibition at 20 ppm (in the data set with Alternaria alternata; in the data set with Botrytis cinerea [2]; with Pyrenophora teres [3]; in data set [4]) was 90 to 100% each time. The compound further had a chromatographic logP in data set [1] of 4.04.
With `Cc1ccc([C@@H](F)CNC(=O)c2c(Oc3cccc(C(F)(F)F)c3)nnc3c2OCC(C)(C)CO3)c(C)c1` (racemic) [I-156], the inhibition at 20 ppm (in the data set on Alternaria alternata; with Septoria tritici; in the data set on Botrytis cinerea [2]; in the data set with Pyrenophora teres [3]; in [4]) was 90 to 100% each time. This compound yielded a chromatographic logP in data set [1] of 4.15.
With `Cc1ccc(C(F)(F)CNC(=O)c2c(Oc3cccc(Br)c3)cnc3ccccc23)c(C)c1` [I-226], the pest or weed control at 500 ppm was 70 to 79% in the data set on Pyrenophora teres [5]; 90 to 100% in the data set on Botrytis cinerea [6]; 90 to 100% in the data set on Sphaerotheca fuliginea; 90 to 100% with Alternaria brassicae; 90 to 100% in [7]. Further, the inhibition at 20 ppm (in the data set with Alternaria alternata; with Botrytis cinerea [2]; in the data set on Pyrenophora teres [3]; in data set [4]) was 90 to 100% throughout. In data set [1], this compound gave a chromatographic logP of 4.48.
`O=C(NCC(F)(F)c1ccc(Cl)cc1)c1c(Oc2cccc(C(F)F)c2)nnc2c1CCCC2` [I-120]: the inhibition at 20 ppm with Alternaria alternata lay in the range of 90 to 100%; in the data set with Septoria tritici it was 80 to 89%; in the data set with Botrytis cinerea [2], 90 to 100%; in the data set on Pyrenophora teres [3], 90 to 100%; in data set [4], 90 to 100%. The same compound returned a chromatographic logP in data set [1] of 3.37.
With `Cc1cc(Br)ccc1[C@@H](F)CNC(=O)c1c(Oc2cccc(Cl)c2)nnc2ccccc12` (racemic) [I-055], the pest or weed control at 500 ppm with Pyrenophora teres [5] was 80 to 89%; with Botrytis cinerea [6], 90 to 100%; with Sphaerotheca fuliginea it was 90 to 100%; in the data set with Alternaria brassicae, 90 to 100%; in data set [7], 70 to 79%. In addition, the inhibition at 20 ppm (in the data set with Alternaria alternata; in the data set on Botrytis cinerea [2]; in data set [4]) was 90 to 100% each time. This compound displayed a chromatographic logP in data set [1] of 4.33.
In the case of `O=C(NCC(F)c1ccc(Cl)cc1Cl)c1c(Oc2cccc(Cl)c2)nnc2c1CCCC2` (centres unmarked) [I-179], the inhibition at 20 ppm (with Alternaria alternata; in the data set with Septoria tritici; in the data set with Botrytis cinerea [2]; in the data set with Pyrenophora teres [3]; in [4]) was 90 to 100% in each case. Also, the chromatographic logP in data set [1] was found to be 3.89.
In the case of `O=C(NC[C@H](F)c1ccc(C2CC2)cc1Cl)c1c(Oc2cccc(Cl)c2)nnc2ccccc12` (racemic) [I-054], the pest or weed control at 500 ppm in the data set with Pyrenophora teres [5] is 80 to 89%; in the data set with Botrytis cinerea [6] it was 90 to 100%; in the data set on Sphaerotheca fuliginea, 70 to 79%; in the data set on Alternaria brassicae it was 90 to 100%; in [7], 90 to 100%. Moreover, the inhibition at 20 ppm (in the data set on Alternaria alternata; in the data set on Botrytis cinerea [2]; in data set [4]) was 90 to 100% in each case. Moreover, the chromatographic logP in data set [1] is 4.47.
With `Cc1cc(Cl)ccc1[C@@H](F)CNC(=O)c1c(Oc2cccc(Cl)c2)nnc2ccccc12` (racemic) [I-053], the pest or weed control at 500 ppm in the data set with Pyrenophora teres [5] is 70 to 79%; in the data set with Botrytis cinerea [6], 90 to 100%; in the data set on Sphaerotheca fuliginea it was 80 to 89%; in the data set on Alternaria brassicae, 90 to 100%; in [7] it was 90 to 100%. In addition, the inhibition at 20 ppm (with Alternaria alternata; in the data set with Botrytis cinerea [2]; in data set [4]) was 90 to 100% each time. For the same compound, the chromatographic logP in data set [1] was 4.23.
In the case of `Cc1ccc(C(F)(F)CNC(=O)c2c(Oc3cccc(C4CC4)c3)cnc3ccccc23)c(C)c1` [I-223], the pest or weed control at 500 ppm was 80 to 89% with Pyrenophora teres [5]; 90 to 100% in the data set on Botrytis cinerea [6]; 90 to 100% in the data set on Sphaerotheca fuliginea; 90 to 100% in the data set with Alternaria brassicae; 90 to 100% in data set [7]. For the same compound, the inhibition at 20 ppm (in the data set on Alternaria alternata; with Botrytis cinerea [2]; in the data set with Pyrenophora teres [3]; in [4]) was 90 to 100% in each case. The same compound had a chromatographic logP in data set [1] of 4.59.
In the case of `Cc1ccc(C(F)(F)CNC(=O)c2c(Oc3cccc(C4CC4)c3F)cnc3ccccc23)c(C)c1` [I-224], the pest or weed control at 500 ppm in the data set with Pyrenophora teres [5] was in the range of 70 to 79%; with Botrytis cinerea [6] it was 90 to 100%; in the data set with Sphaerotheca fuliginea it was 90 to 100%; in the data set with Alternaria brassicae, 80 to 89%; in [7], 90 to 100%. Also, the inhibition at 20 ppm (with Alternaria alternata; in the data set on Botrytis cinerea [2]; with Pyrenophora teres [3]; in [4]) was 90 to 100% each time. For the same compound, the chromatographic logP in [1] was found to be 4.63.
`Cc1cc(Cl)ccc1C(F)(F)CNC(=O)c1c(Oc2cccc(C(F)F)c2)nnc2c1CCCC2` [I-163]: the inhibition at 20 ppm (in the data set with Alternaria alternata; in the data set with Septoria tritici; with Botrytis cinerea [2]; in the data set with Pyrenophora teres [3]; in data set [4]) was 90 to 100% in each case.
On to `Cc1ccc(C(F)(F)CNC(=O)c2c(Oc3cccc(C(F)F)c3)nnc3ccccc23)c(C)c1` [I-033], for which the pest or weed control at 500 ppm in the data set with Pyrenophora teres [5] was 70 to 79%; in the data set with Botrytis cinerea [6], 90 to 100%; with Sphaerotheca fuliginea, 90 to 100%; in the data set with Alternaria brassicae, 90 to 100%; in [7], 80 to 89%. Moreover, the inhibition at 20 ppm (with Alternaria alternata; in data set [4]) was 90 to 100% in each case. For the same compound, the chromatographic logP in data set [1] is 3.92.

For orientation: inhibition means the relative decrease from the control value, in per cent. As usually defined, the chromatographic logP is lipophilicity estimated from chromatographic retention.
